What was measured:
Assay in all cases: relative viability (nuclei count vs DMSO), 5 days (fraction); higher = more cells survive
IMD-0354 + Pictilisib = compound: O=C(Nc1cc(C(F)(F)F)cc(C(F)(F)F)c1)c1cc(Cl)ccc1O [IMD-0354] + CS(=O)(=O)N1CCN(Cc2cc3nc(-c4cccc5[nH]ncc45)nc(N4CCOCC4)c3s2)CC1 [Pictilisib] (partner 1 µM)
Procedure, shortened: (§1)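 Relative viability equals treated-well nuclei counts divided by vehicle-well nuclei counts. Counts came from 4× images of lung cancer cell lines grown in 1536-well plates for 5 days after pin-tool dosing on the day after seeding. Dosing used one drug alone or a fixed anchor-drug dose plus five library-drug doses (not always all listed) in √10 steps, and values are medians of duplicate plates.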

CX-5461 + Dasatinib = compound: Cc1cnc(CNC(=O)c2c(=O)c3ccc(N4CCCN(C)CC4)nc3n3c2sc2ccccc23)cn1 [CX-5461] + Cc1nc(Nc2ncc(C(=O)Nc3c(C)cccc3Cl)s2)cc(N2CCN(CCO)CC2)n1 [Dasatinib] (partner 0.075 µM)
Procedure, shortened: as §1

IMD-0354 + Foretinib = compound: O=C(Nc1cc(C(F)(F)F)cc(C(F)(F)F)c1)c1cc(Cl)ccc1O [IMD-0354] + COc1cc2c(Oc3ccc(NC(=O)C4(C(=O)Nc5ccc(F)cc5)CC4)cc3F)ccnc2cc1OCCCN1CCOCC1 [Foretinib] (partner 0.25 µM)
Procedure, shortened: as §1

IMD-0354 + Trametinib = compound: O=C(Nc1cc(C(F)(F)F)cc(C(F)(F)F)c1)c1cc(Cl)ccc1O [IMD-0354] + CC(=O)Nc1cccc(-n2c(=O)n(C3CC3)c(=O)c3c(Nc4ccc(I)cc4F)n(C)c(=O)c(C)c32)c1 [Trametinib] (partner 0.02 µM)
Procedure, shortened: as §1

Cell Line	relative viability (IMD-0354 + Pictilisib; first compound 0.04 µM)	relative viability (IMD-0354 + Pictilisib; first compound 0.1265 µM)	relative viability (IMD-0354 + Pictilisib; first compound 0.4 µM)	relative viability (IMD-0354 + Pictilisib; first compound 1.265 µM)	relative viability (IMD-0354 + Pictilisib; first compound 4 µM)	relative viability (CX-5461 + Dasatinib; first compound 0.01 µM)	relative viability (CX-5461 + Dasatinib; first compound 0.03162 µM)	relative viability (CX-5461 + Dasatinib; first compound 0.1 µM)	relative viability (CX-5461 + Dasatinib; first compound 0.3162 µM)	relative viability (CX-5461 + Dasatinib; first compound 1 µM)	relative viability (IMD-0354 + Foretinib; first compound 0.04 µM)	relative viability (IMD-0354 + Foretinib; first compound 0.1265 µM)	relative viability (IMD-0354 + Foretinib; first compound 0.4 µM)	relative viability (IMD-0354 + Foretinib; first compound 1.265 µM)	relative viability (IMD-0354 + Foretinib; first compound 4 µM)	relative viability (IMD-0354 + Trametinib; first compound 0.04 µM)	relative viability (IMD-0354 + Trametinib; first compound 0.1265 µM)	relative viability (IMD-0354 + Trametinib; first compound 0.4 µM)	relative viability (IMD-0354 + Trametinib; first compound 1.265 µM)	relative viability (IMD-0354 + Trametinib; first compound 4 µM)
NCI-H1915	0.68	1.02	0.671	0.33	0.199	0.292	0.358	0.301	0.299	0.297	0.976	1.15	0.491	0.818	0.272	0.321	0.309	0.324	0.249	0.12
NCI-H596	0.383	0.381	0.375	0.372	0.34	0.613	0.639	0.596	0.623	0.473	0.901	0.844	0.634	0.917	0.307	0.843	0.649	0.639	0.659	0.512
NCI-H322M	0.575	0.519	0.485	0.557	0.446	0.249	0.243	0.267	0.219	0.267	1.12	0.907	0.716	0.31	0.402	0.567	0.622	0.483	0.388	0.426
NCI-H2228	0.388	0.367	0.217	0.365	0.247	0.399	0.465	0.28	0.309	0.0755	1.05	0.921	0.416	0.515	0.17	0.472	0.454	0.43	0.171	0.232
NCI-H647	0.626	0.524	0.184	0.232	0.0513	0.18	0.175	0.161	0.162	0.0641	1.57	1.27	0.426	0.554	0.148	0.432	0.616	0.175	0.107	0.0901
LK-2	0.425	0.504	0.408	0.381	0.246	0.258	0.229	0.251		0.195	1.76	1.14	0.515	1.11	0.222	0.831	0.669		0.874	0.255
NCI-H358	0.319	0.31	0.263	0.241	0.22	0.146	0.148	0.176	0.0999	0.12	0.753	0.828	0.372	0.163	0.126	0.116	0.128	0.14	0.134	0.102
NCI-H2085	0.404	0.422	0.424	0.309	0.303	0.237	0.228	0.257	0.229	0.252	0.97	0.922	0.791	0.538	0.225	0.559	0.477	0.471	0.25	0.27
NCI-H727	0.384	0.368	0.35	0.237	0.238	0.324	0.361	0.253	0.377	0.31	0.94	0.869	0.659	0.711	0.477	0.38	0.323	0.365	0.351	0.394
NCI-H441	0.543	0.521	0.316	0.266	0.183	0.593	0.486	0.747	0.419	0.364	0.919	0.872	0.478	0.28	0.272	0.528	0.543	0.359	0.164	0.191
LOU-NH91	0.556	0.591	0.259	0.203	0.209	0.677	0.511	0.602		0.532	0.976	0.981	0.575	0.154	0.134	0.824	0.675	0.406	0.177	0.239
NCI-H3122	0.737	0.554	0.527	0.174	0.173	0.821	0.942	0.828	0.824	0.346	0.959	0.964	0.722	0.779	0.129	0.215	0.223	0.178	0.252	0.147
NCI-H460	0.438	0.48	0.184	0.0352	0.0702	0.554	0.435	0.263	0.516	0.0464	0.988	0.858	0.366	0.0865	0.026	0.196	0.173	0.0878	0.0353	0.0199
NCI-H650	1.09	0.89	0.597	0.415	0.239	0.423	0.431	0.448	0.482	0.389	1.07	0.961	0.832	0.515	0.234	0.987	1.07	1.05	0.681	0.232
NCI-H661	0.416	0.418	0.34	0.264	0.252	1.06	0.863	0.9		0.4	1.06	1.01	0.681	0.295	0.24	0.532	0.512	0.397	0.308	0.256
